Data as given in PubChem BioAssay AID493135 (Sanford-Burnham Center for Chemical Genomics, 2011).
Activity calls are given as the source filed them. No rule for the calls is given here.

Biological target: intestinal alkaline phosphatase Alpi (Mus musculus)
Assay: mouse IAP enzyme inhibitors, SAR follow-up, biochemical, luminescence (AID 493135)
Settings: purified mouse IAP, luminescent substrate readout

**Q.** With COc1cccc(NC(=S)NCCC(c2ccccc2)c2ccccc2)c1 as the compound, how does the IC50 read?
**A.** > 100 µM (inactive)

**Q.** For CCc1ccccc1Nc1nc(-c2ccc(O)c(O)c2)cs1, which IC50 is on record?
**A.** 1.55 µM

**Q.** How did the IC50 turn out when Cc1c(Cl)cccc1NC(=S)NCCC(c1ccccc1)c1ccccc1 was run?
**A.** > 100 µM (inactive)

**Q.** For CC(C)n1cc(CN2CCC(C(=O)Nc3cccc(-c4cccc(Cl)c4)c3)CC2)cn1, which IC50 is on record?
**A.** > 100 µM (inactive)

**Q.** For Cc1ccc(CN2CCC(C(=O)Nc3cccc(-c4cccc(F)c4)c3)CC2)o1, which IC50 is on record?
**A.** > 100 µM (inactive)

**Q.** How did the IC50 turn out when Cc1cc(Cl)ccc1NC(=S)NCCC(c1ccccc1)c1ccccc1 was run?
**A.** > 100 µM (inactive)

**Q.** For COc1ccc(Cl)cc1Nc1nc(-c2ccc(O)c(O)c2)cs1, which IC50 is on record?
**A.** 1.42 µM

**Q.** Which IC50 does the source give for Cc1ccc(NC(=S)NCCC(c2ccccc2)c2ccccc2)cc1C here?
**A.** > 100 µM (inactive)

**Q.** For CCn1cc(CN2CCC(C(=O)Nc3cccc(-c4cccc(OC)c4)c3)CC2)cn1, which IC50 is on record?
**A.** > 100 µM (inactive)

**Q.** C=CCn1cc(CN2CCC(C(=O)Nc3cccc(-c4cccc(Cl)c4)c3)CC2)c(C)n1 was tested. Which IC50 did it give?
**A.** > 100 µM (inactive)

**Q.** How did the IC50 turn out when CCn1cc(CN2CCC(C(=O)Nc3cccc(-c4cccc(OC)c4)c3)CC2)c(C)n1 was run?
**A.** > 100 µM (inactive)

**Q.** For S=C(NCCC(c1ccccc1)c1ccccc1)Nc1ccccc1, which IC50 is on record?
**A.** > 100 µM (inactive)

**Q.** For O=C(CN1C(=O)/C(=C/c2ccco2)SC1=S)Nc1ccc(C(=O)O)cc1, which IC50 is on record?
**A.** 7.97 µM

**Q.** With CCn1c(SCC(=O)c2ccc(O)c(O)c2)nnc1-c1ccccc1OC as the compound, how does the IC50 read?
**A.** 1.9 µM

**Q.** With CCn1nc(C)c(CN2CCC(C(=O)Nc3cccc(-c4cccc(Cl)c4)c3)CC2)c1C as the compound, how does the IC50 read?
**A.** > 100 µM (inactive)

**Q.** With O=C(Nc1cccc(-c2cccc(F)c2)c1)C1CCN(Cc2ccc(CO)o2)CC1 as the compound, how does the IC50 read?
**A.** > 100 µM (inactive)

**Q.** For FC(F)(F)c1cccc(NC(=S)NCCC(c2ccccc2)c2ccccc2)c1, which IC50 is on record?
**A.** > 100 µM (inactive)

**Q.** With CC(C)n1cc(CN2CCC(C(=O)Nc3cccc(-c4cccc(F)c4)c3)CC2)cn1 as the compound, how does the IC50 read?
**A.** > 100 µM (inactive)

**Q.** Which IC50 does the source give for O=C(CN1C(=O)/C(=C/c2ccco2)SC1=S)Nc1cccc(C(=O)O)c1 here?
**A.** 8.17 µM

**Q.** Which IC50 does the source give for CC(C)N1CCC(=NNC(=O)c2cc(O)c(O)c(O)c2)CC1 here?
**A.** 24.9 µM

**Q.** For Cn1cc(CN2CCC(C(=O)Nc3cccc(-c4cccc(Cl)c4)c3)CC2)cn1, which IC50 is on record?
**A.** > 100 µM (inactive)

**Q.** For CN1CCC(=NNC(=O)c2cc(O)c(O)c(O)c2)CC1, which IC50 is on record?
**A.** 38.7 µM

**Q.** Which IC50 does the source give for COc1ccc(Cl)cc1NC(=S)NCCC(c1ccccc1)c1ccccc1 here?
**A.** > 100 µM (inactive)

**Q.** CCOC(=O)c1ccc(NC(=S)NCCC(c2ccccc2)c2ccccc2)cc1 was tested. Which IC50 did it give?
**A.** > 100 µM (inactive)

**Q.** O=C(Nc1cccc(-c2cccc(Cl)c2)c1)C1CCN(C2CCC2)CC1 was tested. Which IC50 did it give?
**A.** > 100 µM (inactive)

**Q.** For O=C(CN1C(=O)/C(=C\c2ccco2)SC1=S)Nc1ccccc1C(=O)O, which IC50 is on record?
**A.** 58.7 µM

**Q.** Cc1nn(C)c(Cl)c1CN1CCC(C(=O)Nc2cccc(-c3cccc(F)c3)c2)CC1 was tested. Which IC50 did it give?
**A.** > 100 µM (inactive)

**Q.** For CCn1cc(CN2CCC(C(=O)Nc3cccc(-c4cccc(Cl)c4)c3)CC2)cn1, which IC50 is on record?
**A.** > 100 µM (inactive)

**Q.** Which IC50 does the source give for S=C(NCCC(c1ccccc1)c1ccccc1)Nc1cccc(Cl)c1 here?
**A.** > 100 µM (inactive)

**Q.** COc1ccc(C(=O)CSc2n[nH]c(-c3ccccc3)n2)cc1OC was tested. Which IC50 did it give?
**A.** > 100 µM (inactive)

**Q.** Which IC50 does the source give for S=C(NCCC(c1ccccc1)c1ccccc1)Nc1ccc(Cl)c(Cl)c1 here?
**A.** > 100 µM (inactive)

**Q.** How did the IC50 turn out when C=CCn1cc(CN2CCC(C(=O)Nc3cccc(-c4cccc(F)c4)c3)CC2)c(C)n1 was run?
**A.** > 100 µM (inactive)

**Q.** With CN(C)S(=O)(=O)c1cccc(NC(=S)NCCC(c2ccccc2)c2ccccc2)c1 as the compound, how does the IC50 read?
**A.** > 100 µM (inactive)

**Q.** Which IC50 does the source give for S=C(NCCC(c1ccccc1)c1ccccc1)Nc1ccc(Cl)cc1 here?
**A.** > 100 µM (inactive)

**Q.** How did the IC50 turn out when CC1(c2ccccc2)CC(C)(C)N(C(=S)Nc2ccccc2)c2ccccc21 (stereo not drawn) was run?
**A.** > 100 µM (inactive)

**Q.** Which IC50 does the source give for Cc1ccc(NC(=O)CCNS(=O)(=O)c2ccc3[nH]c(=O)oc3c2)cc1C here?
**A.** 87.1 µM

**Q.** Fc1ccc(NC(=S)NCCC(c2ccccc2)c2ccccc2)cc1Cl was tested. Which IC50 did it give?
**A.** > 100 µM (inactive)

**Q.** COc1ccc(NC(=S)NCCC(c2ccccc2)c2ccccc2)cc1 was tested. Which IC50 did it give?
**A.** > 100 µM (inactive)

**Q.** Which IC50 does the source give for CCCn1ncc(CN2CCC(C(=O)Nc3cccc(-c4cccc(F)c4)c3)CC2)c1C here?
**A.** > 100 µM (inactive)

**Q.** COc1cc(NC(=S)NCCC(c2ccccc2)c2ccccc2)cc(OC)c1 was tested. Which IC50 did it give?
**A.** > 100 µM (inactive)

**Q.** COCc1ccc(CN2CCC(C(=O)Nc3cccc(-c4cccc(Cl)c4)c3)CC2)o1 was tested. Which IC50 did it give?
**A.** > 100 µM (inactive)

**Q.** For Cc1nn(C(C)C)c(C)c1CN1CCC(C(=O)Nc2cccc(-c3cccc(F)c3)c2)CC1, which IC50 is on record?
**A.** > 100 µM (inactive)

**Q.** Which IC50 does the source give for NS(=O)(=O)c1ccc(NC(=S)NCCC(c2ccccc2)c2ccccc2)cc1 here?
**A.** > 100 µM (inactive)

**Q.** Which IC50 does the source give for CCn1nc(C)c(CN2CCC(C(=O)Nc3cccc(-c4cccc(F)c4)c3)CC2)c1C here?
**A.** > 100 µM (inactive)

**Q.** Which IC50 does the source give for COc1cc([N+](=O)[O-])ccc1NC(=S)NCCC(c1ccccc1)c1ccccc1 here?
**A.** > 100 µM (inactive)

**Q.** For O=S(=O)(Nc1ncccn1)c1ccc(NC(=S)NCCC(c2ccccc2)c2ccccc2)cc1, which IC50 is on record?
**A.** > 100 µM (inactive)

**Q.** How did the IC50 turn out when Cc1ccc(NC(=S)NCCC(c2ccccc2)c2ccccc2)cc1 was run?
**A.** > 100 µM (inactive)

**Q.** S=C(NCCC(c1ccccc1)c1ccccc1)Nc1ccc(Nc2ccccc2)cc1 was tested. Which IC50 did it give?
**A.** > 100 µM (inactive)

**Q.** For Cc1cc(NC(=O)CCNS(=O)(=O)c2ccc3[nH]c(=O)oc3c2)ccc1Br, which IC50 is on record?
**A.** 81.8 µM

**Q.** Which IC50 does the source give for CCn1ncc(CN2CCC(C(=O)Nc3cccc(-c4cccc(F)c4)c3)CC2)c1C here?
**A.** > 100 µM (inactive)

**Q.** How did the IC50 turn out when CCN1CCN(S(=O)(=O)c2ccc3[nH]c(=O)oc3c2)CC1 was run?
**A.** > 100 µM (inactive)

**Q.** How did the IC50 turn out when O=[N+]([O-])c1ccc(NC(=S)NCCC(c2ccccc2)c2ccccc2)cc1 was run?
**A.** > 100 µM (inactive)

**Q.** Which IC50 does the source give for Cc1c(Cl)cccc1Nc1nc(-c2ccc(O)c(O)c2)cs1 here?
**A.** 7.51 µM

**Q.** For Cc1cc(=O)oc2cc(NC(=S)NCCC(c3ccccc3)c3ccccc3)ccc12, which IC50 is on record?
**A.** > 100 µM (inactive)

**Q.** For O=C(Nc1cccc(-c2cccc(Cl)c2)c1)C1CCN(Cc2ccc(CO)o2)CC1, which IC50 is on record?
**A.** > 100 µM (inactive)

**Q.** S=C(NCCC(c1ccccc1)c1ccccc1)Nc1ccc(Cl)cc1Cl was tested. Which IC50 did it give?
**A.** > 100 µM (inactive)

**Q.** With Cc1cc(C)cc(NC(=S)NCCC(c2ccccc2)c2ccccc2)c1 as the compound, how does the IC50 read?
**A.** > 100 µM (inactive)

**Q.** How did the IC50 turn out when Cc1c(CN2CCC(C(=O)Nc3cccc(-c4cccc(Cl)c4)c3)CC2)cnn1C was run?
**A.** > 100 µM (inactive)

**Q.** For Fc1ccccc1NC(=S)NCCC(c1ccccc1)c1ccccc1, which IC50 is on record?
**A.** > 100 µM (inactive)

**Q.** Which IC50 does the source give for CCn1cc(CN2CCC(C(=O)Nc3cccc(-c4cccc(F)c4)c3)CC2)cn1 here?
**A.** > 100 µM (inactive)

**Q.** How did the IC50 turn out when Cc1ccc(C)c(NC(=S)NCCC(c2ccccc2)c2ccccc2)c1 was run?
**A.** > 100 µM (inactive)

**Q.** For Cc1cccc(NC(=S)NCCC(c2ccccc2)c2ccccc2)c1C, which IC50 is on record?
**A.** > 100 µM (inactive)

**Q.** For COc1cccc(-c2cccc(NC(=O)C3CCN(Cc4ccc(C)o4)CC3)c2)c1, which IC50 is on record?
**A.** > 100 µM (inactive)

**Q.** With Oc1ccc(-c2csc(Nc3cccc4ccccc34)n2)cc1O as the compound, how does the IC50 read?
**A.** 1.11 µM

**Q.** With COC(=O)c1cc(NC(=S)NCCC(c2ccccc2)c2ccccc2)cc(C(=O)OC)c1 as the compound, how does the IC50 read?
**A.** > 100 µM (inactive)

**Q.** For Cn1cc(CN2CCC(C(=O)Nc3cccc(-c4cccc(F)c4)c3)CC2)cn1, which IC50 is on record?
**A.** > 100 µM (inactive)

**Q.** COc1cccc(-c2cccc(NC(=O)C3CCN(Cc4ccc(CO)o4)CC3)c2)c1 was tested. Which IC50 did it give?
**A.** > 100 µM (inactive)

**Q.** CC(C)c1ccccc1NC(=S)NCCC(c1ccccc1)c1ccccc1 was tested. Which IC50 did it give?
**A.** > 100 µM (inactive)
